The supplement of paper PMC10331698
± gives the standard deviation of the averaged measurements.

Columns and labels:
Test in all cases: LOEC (log10 uM (lowest observed effect concentration))
Perfluorodecanoic acid = compound: O=C(O)C(F)(F)C(F)(F)C(F)(F)C(F)(F)C(F)(F)C(F)(F)C(F)(F)C(F)(F)C(F)(F)F [Perfluorodecanoic acid]
Protocol: (§1)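 BioMAP Diversity Plus panel in human primary cell co-cultures, 4 concentrations in duplicate blinded samples. Responses are log10 fold change versus DMSO control, processed with tcpl v2.1.0. A hit is called when responses at any concentration exceed the cutoff (the larger of 3*bmad or log10(1.2)); the lowest observed effect concentration (modl_ga, log10 uM) is reported for hits.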

[1] = compound: C[N+](C)(C)CCCNS(=O)(=O)C(F)(F)C(F)(F)C(F)(F)C(F)(F)C(F)(F)C(F)(F)C(F)(F)C(F)(F)F [Perfluorooctanesulfonamido ammonium iodide]
Protocol: as §1

[2] = compound: OCCCC(F)(F)C(F)(F)C(F)(F)C(F)(F)C(F)(F)C(F)(F)C(F)(F)F [7:3 Fluorotelomer alcohol]
Protocol: as §1

Perfluoro-1-iodohexane = compound: FC(F)(F)C(F)(F)C(F)(F)C(F)(F)C(F)(F)C(F)(F)I [Perfluoro-1-iodohexane]
Protocol: as §1

[3] = compound: CCN(CCO)S(=O)(=O)C(F)(F)C(F)(F)C(F)(F)C(F)(F)C(F)(F)C(F)(F)C(F)(F)C(F)(F)F [N-Ethyl-N-(2-hydroxyethyl)perfluorooctanesulfonamide]
Protocol: as §1

[4] = compound: O=C(O)C(F)(F)C(F)(F)C(F)(F)C(F)(F)C(F)(F)C(F)(F)C(F)(F)C(F)F [9-H-Perfluorononanoic acid]
Protocol: as §1

[5] = compound: FC(F)(F)C(F)(F)C(F)(F)C(F)(F)C(F)(F)CCI [1-Iodo-1H,1H,2H,2H-perfluoroheptane]
Protocol: as §1

[6] = compound: OCCC(F)(F)C(F)(F)C(F)(F)C(F)(F)C(F)(F)C(F)(F)F [6:2 Fluorotelomer alcohol]
Protocol: as §1

[7] = compound: OCC(F)(F)OC(F)(F)C(F)(F)OC(F)(F)CO [1H,1H,8H,8H-Perfluoro-3,6-dioxaoctane-1,8-diol]
Protocol: as §1

[8] = compound: O=C(O)C(F)(F)C(F)(F)C(F)(F)OC(F)(C(F)(F)F)C(F)(F)F [Perfluoro-4-isopropoxybutanoic acid]
Protocol: as §1

[9] = compound: C=CC(=O)OCC(F)(F)C(F)(F)C(F)(F)C(F)(F)C(F)(F)C(F)(F)C(F)(F)F [1H,1H-Perfluorooctyl acrylate]
Protocol: as §1

[10] = compound: O=C(O)C(F)(F)OC(F)(F)C(F)(F)OC(F)(F)F [Perfluoro-3,6-dioxaheptanoic acid]
Protocol: as §1

Perfluoroheptanoic acid = compound: O=C(O)C(F)(F)C(F)(F)C(F)(F)C(F)(F)C(F)(F)C(F)(F)F [Perfluoroheptanoic acid]
Protocol: as §1

[11] = compound: O=S(=O)(O)C(F)(F)C(F)(F)C(F)(F)C(F)(F)C(F)(F)C(F)(F)F [Perfluorohexanesulfonic acid]
Protocol: as §1

Test System | LOEC (log10 uM) (Perfluorodecanoic acid) | LOEC (log10 uM) [1] | LOEC (log10 uM) [2] | LOEC (log10 uM) [3] | LOEC (log10 uM) [4] | LOEC (log10 uM) [6] | also measured
MyoF VCAM1 down | 1.54 ± 0.34 | 1.78 | 1.78 | 1.3 | – | – | LOEC (log10 uM) (Perfluoro-1-iodohexane): 1.54 ± 0.34
hDFCGF ITAC down | 1.3 | 1.78 | 1.3 | 1.07 ± 0.32 | 1.54 ± 0.34 | 1.78 | LOEC (log10 uM) [5]: 1.78
3C MIG down | 1.78 | – | 1.78 | – | – | 1.78 | –
hDFCGF SRB up | – | – | – | – | 1.54 ± 0.34 | – | –
IMphg CD40 down | 1.78 | 1.54 ± 0.34 | 1.78 | – | – | – | LOEC (log10 uM) [7]: 1.3
hDFCGF IP10 down | 1.07 ± 0.32 | 1.78 | 1.3 | 1.07 ± 0.32 | – | – | LOEC (log10 uM) [5]: 1.78
MyoF SRB down | 1.54 ± 0.34 | 1.78 | 1.78 | 1.3 | – | – | LOEC (log10 uM) (Perfluoro-1-iodohexane): 1.3
hDFCGF PAI1 down | 1.54 ± 0.34 | 1.78 | 1.3 | 1.54 ± 0.34 | – | 1.78 | –
BT xTNFa down | – | 1.54 ± 0.34 | 1.3 | 1.3 | – | 1.78 | –
hDFCGF MCSF down | 1.3 | – | 1.3 | 1.07 ± 0.32 | – | – | LOEC (log10 uM) [5]: 1.78
LPS IL8 up | – | – | – | – | 1.54 ± 0.34 | – | LOEC (log10 uM) [8]: 1.54 ± 0.34
3C Proliferation down | 1.78 | 1.78 | 1.07 ± 0.32 | 0.573 ± 0.39 | – | 1.78 | LOEC (log10 uM) [9]: 1.78; LOEC (log10 uM) [5]: 1.78
hDFCGF CollagenI down | – | – | 1.3 | – | – | 1.78 | –
hDFCGF MIG down | 1.07 ± 0.32 | – | 1.3 | 1.3 | – | 1.78 | –
hDFCGF MCP1 down | 1.78 | 1.78 | 1.3 | 1.3 | – | 1.78 | –
IMphg IL8 up | – | – | – | 1.78 | 1.78 | – | LOEC (log10 uM) [10]: 1.78; LOEC (log10 uM) [8]: 1.78; LOEC (log10 uM) (Perfluoroheptanoic acid): 1.78
BE3C HLADR down | 1.3 | 1.78 | 1.78 | 1.3 | 1.07 ± 0.32 | – | –
BE3C MMP1 up | – | 1.78 | – | 0.845 | 1.78 | – | LOEC (log10 uM) [11]: 1.78; LOEC (log10 uM) [5]: 1.54 ± 0.34
BF4T tPA down | 1.3 | 1.3 | 1.78 | – | 1.07 ± 0.32 | – | –
BT Bcell Proliferation up | 1.78 | – | – | – | 1.78 | – | –
hDFCGF SRB down | 1.78 | 1.78 | 1.3 | 0.573 ± 0.39 | – | 1.78 | –
hDFCGF VCAM1 down | 0.801 ± 0.71 | 1.78 | 1.3 | 1.54 ± 0.34 | – | 1.78 | LOEC (log10 uM) [5]: 1.78
MyoF CollagenI down | 1.3 | 1.78 | 1.78 | 1.3 | – | – | LOEC (log10 uM) (Perfluoro-1-iodohexane): 1.78
4H Eotaxin3 down | 1.78 | 1.78 | 1.54 ± 0.34 | 1.54 ± 0.34 | – | – | –
